SMILES strings stand for the structures. Like-named read-outs stand apart in the source and are kept apart here.

The subject of data set [1] is Echinochloa crus. The following applies: for plant mortality, measured value: Echinochloa crus.
Description: (§1) X is % damage by uracil compound (a) of formula 1 at the rate of application of p kg/ha; Y is % damage by conventional herbicidal compound (b) at the rate of application of q kg/ha; and E is the expected damage caused by compounds (a) and (b) at a rate of application of p and q kg/ha.
(§2) The expected activity for a given combination of two herbicides can be calculated using equation 1 above.
Data set [2] concerns Digitaria sanguinalis. As to conditions: for plant mortality, measured value: Digitaria sanguinalis.
Description: as §1, §2
The test system of data set [3] is Abutilon theophrasti.
Description: as §1, §2
In data set [4] the test system is Aeschynomene indica.
Description: as §1, §2
Data set [5] relates to Xanthium spinosum.
Description: as §1, §2
For the next data set, the system named is Monochoria vaginalis. Kind of data set: Paddy field farming herbicidal composition test, plant mortality. The class given is in vivo.
The subject of data set [6] is Echinochloa crus. The description is as above. The class given is in vivo.
Description: as §1, §2
In data set [7] the test system is Abutilon theophrasti. The experiment in a line: whole plant or invertebrate.
Description: as §1, §2
For data set [8], the system named is Aeschynomene indica. Kind of data set: whole plant or invertebrate.
Description: as §1, §2
For data set [9], the system named is Xanthium spinosum. The experiment in a line: whole plant or invertebrate.
Description: as §1, §2
Data set [10] relates to Echinochloa crus. The experiment in a line: Dry field farming herbicidal composition test, plant mortality. The format is in vivo. The following applies: Echinochloa, read-out: Echinochloa crus mortality, measured value.
Description: as §1, §2
In data set [11] the test system is Digitaria sanguinalis. Described as above. The class given is in vivo. As to conditions: Digitaria sanguinalis, read-out: Digitaria sanguinalis mortality, measured value.
Description: as §1, §2
Data set [12] deals with Abutilon theophrasti. The data set is described as above. The class given is in vivo. As to conditions: Abutilon theophrasti, read-out: Abutilon theophrasti mortality, measured value.
Description: as §1, §2
In data set [13] the test system is Aeschynomene indica. The description is as above. The format is in vivo. The following applies: Aeschynomene indica, read-out: Aeschynomene indica mortality, measured value.
Description: as §1, §2
The mark [14] stands for this setting: Pontederia vaginalis, read-out: Monochoria vaginalis mortality (measured value).
Where [15] appears, read: Echinochloa, read-out: Echinochloa crus mortality, measured value.
Setting [16] is: read-out: plant mortality, measured value, 20 g/ha.
Where [17] appears, read: read-out: plant mortality, measured value, 40 g/ha.
Setting [18] is: read-out: plant mortality, measured value, 80 g/ha.

Description for Monochoria vaginalis: as §1, §2

Take `O=C(O)COc1ccc(Cl)cc1Cl` [2,4-D)]: the “Data (measured value) Echinochloa crus” value with Echinochloa crus [1] (200 g/ha) and in the data set with Echinochloa crus [1] (400 g/ha) was 0 each time. Also, the “Data (measured value) Digitaria sanguinalis” value in the data set with Digitaria sanguinalis [2] (200 g/ha) and with Digitaria sanguinalis [2] (400 g/ha) was 0 throughout. The “Data (measured value) Abutilon theophrasti” value turned out to be 21 in the data set with Abutilon theophrasti [3] (200 g/ha) and 47 in the data set with Abutilon theophrasti [3] (400 g/ha). Also, the figures for the “Data (measured value) Aeschynomene indica” value in the data set with Aeschynomene indica [4] (200 g/ha) and with Aeschynomene indica [4] (400 g/ha) were 24 and 51, respectively. The “Data (measured value) Xanthium spinosum” value with Xanthium spinosum [5] (200 g/ha) came to 22; in the data set with Xanthium spinosum [5] (400 g/ha), 50.
Consider `COP(=S)(OC)SCC(=O)N(c1ccc(Cl)cc1)C(C)(C)C` [Anilofos], for which the pest or weed control at 75 g/ha is 0% in the data set with Monochoria vaginalis (setting [14]) and 50% in the data set on Echinochloa crus [6] (setting [15]).
Turning to `COc1cc(OC)nc(NC(=O)NS(=O)(=O)c2c(-c3nnn(C)n3)cnn2C)n1` [Azimsulfuron], the pest or weed control at 5 g/ha worked out at 50% with Monochoria vaginalis (Pontederia vaginalis, 5 g/ha, read-out: Monochoria vaginalis mortality (measured value)) and 30% in the data set on Echinochloa crus [6] (Echinochloa, 5 g/ha, read-out: Echinochloa crus mortality (measured value)).
For `CS(=O)(=O)c1ccc(C(=O)C2=C(Sc3ccccc3)C3CCC(C3)C2=O)c(Cl)c1` (stereo not shown) [Benzobicyclon], the “Monochoria vaginalis mortality (measured value)” value (from here on “Monochoria vaginalis mortality”) in the data set with Monochoria vaginalis (50 g/ha) is 30. In addition, in the data set with Echinochloa crus [6] (50 g/ha), the “Echinochloa crus mortality, measured value” (“Echinochloa crus mortality” for short) worked out at 0.
For `CC(C)(NC(=O)C(Br)C(C)(C)C)c1ccccc1` (stereo not shown) [Bromobutide], the pest or weed control at 225 g/ha in the data set on Monochoria vaginalis (Pontederia vaginalis, 225 g/ha, read-out: Monochoria vaginalis mortality (measured value)) came out at 50%; with Echinochloa crus [6] (Echinochloa, 225 g/ha, read-out: Echinochloa crus mortality (measured value)), 0%.
`C=CCOC(=O)C(C)(C)OC(=O)c1cc(-n2c(=O)cc(C(F)(F)F)n(C)c2=O)ccc1Cl` [Butafenacil]: the “plant mortality, measured value” in the data set with Echinochloa crus [1] (4 g/ha) stood at 0; with Echinochloa crus [1] (8 g/ha) it was 0; in the data set on Echinochloa crus [1] (20 g/ha), 12; in the data set on Echinochloa crus [1] (40 g/ha) it was 30; in the data set on Echinochloa crus [1] (80 g/ha) it was 53; with Digitaria sanguinalis [2] (4 g/ha), 0. Further, the “plant mortality, measured value” in the data set on Digitaria sanguinalis [2] (20 g/ha) was determined as 12; in the data set with Digitaria sanguinalis [2] (40 g/ha), 40; in the data set on Digitaria sanguinalis [2] (80 g/ha), 70; in the data set with Abutilon theophrasti [3] (20 g/ha, Abutilon theophrasti), 55. The pest or weed control at 20 g/ha with Abutilon theophrasti [7] (setting [16]) stood at 55%; in the data set with Aeschynomene indica [8] (setting [16]), 51%; in the data set with Xanthium spinosum [9] (setting [16]), 42%. Besides, the pest or weed control at 40 g/ha with Abutilon theophrasti [7] (setting [17]) came to 94%; in the data set on Aeschynomene indica [8] (setting [17]), 99%; in the data set with Xanthium spinosum [9] (setting [17]), 90%. In addition, the pest or weed control at 80 g/ha in the data set on Abutilon theophrasti [7] (setting [18]), in the data set with Aeschynomene indica [8] (setting [18]) and with Xanthium spinosum [9] (setting [18]) was 100% each time. For the same compound, the pest or weed control at 8 g/ha in the data set on Aeschynomene indica [8] (read-out: plant mortality, measured value, 8 g/ha) amounted to 45%. In addition, in the data set on Xanthium spinosum [9] (read-out: plant mortality, measured value, 4 g/ha), the pest or weed control at 4 g/ha came to 15%. In addition, the pest or weed control at 16 g/ha in the data set on Xanthium spinosum [9] (read-out: plant mortality, measured value, 16 g/ha) is 54%.
As for `CCN(CC)C(=O)n1cnc(S(=O)(=O)c2c(C)cc(C)cc2C)n1` [Cafenstrole], the pest or weed control at 50 g/ha worked out at 30% in the data set on Monochoria vaginalis (setting [14]) and 20% in the data set with Echinochloa crus [6] (setting [15]).
Take `COCCOc1ccccc1S(=O)(=O)NC(=O)N=c1nc(OC)[nH]c(OC)n1` [Cinosulfuron]: the values for the pest or weed control at 10 g/ha with Monochoria vaginalis (setting [14]) and in the data set with Echinochloa crus [6] (setting [15]) were 30% and 20%, respectively.
As to `COc1cc(OC)nc(NC(=O)NS(=O)(=O)Nc2ccccc2C(=O)C2CC2)n1` [Cyclosulfamuron], the pest or weed control at 11 g/ha in the data set with Monochoria vaginalis (Pontederia vaginalis, 11 g/ha, read-out: Monochoria vaginalis mortality (measured value)) turned out to be 50%; with Echinochloa crus [6] (Echinochloa, 11 g/ha, read-out: Echinochloa crus mortality (measured value)), 30%.
For the compound `CCN(C(=O)SCc1ccccc1)C(C)C(C)C` (stereo not shown) [Esprocarb], the results for the pest or weed control at 500 g/ha in the data set on Monochoria vaginalis (setting [14]) and with Echinochloa crus [6] (setting [15]) were 30% and 20%, respectively.
For `CCOc1ccccc1OS(=O)(=O)NC(=O)Nc1nc(OC)cc(OC)n1` [Ethoxysulfuron], the results for the pest or weed control at 15 g/ha in the data set on Monochoria vaginalis (setting [14]) and with Echinochloa crus [6] (setting [15]) were 20% and 10%, respectively.
Consider `CCN(C(=O)n1nnn(-c2ccccc2Cl)c1=O)C1CCCCC1` [Fentrazamide], for which the results for the pest or weed control at 50 g/ha with Monochoria vaginalis (setting [14]) and in the data set on Echinochloa crus [6] (setting [15]) were 30% and 20%, respectively.
As for `COc1cc(OC)nc(NC(=O)NS(=O)(=O)c2c(C(=O)O)c(Cl)nn2C)n1` [Halosulfuron], the pest or weed control at 11 g/ha in the data set with Monochoria vaginalis (setting [14]) and with Echinochloa crus [6] (setting [15]) was 30% in each case.
As for `COc1cc(OC)nc(NC(=O)NS(=O)(=O)c2c(Cl)nc3ccccn23)n1` [Imazosulfuron], the pest or weed control at 18 g/ha in the data set with Monochoria vaginalis (Pontederia vaginalis, 18 g/ha, read-out: Monochoria vaginalis mortality (measured value)) came to 40%; with Echinochloa crus [6] (Echinochloa, 18 g/ha, read-out: Echinochloa crus mortality (measured value)), 20%.
`CCC1(CC2(c3cccc(Cl)c3)CO2)C(=O)c2ccccc2C1=O` (stereo not shown) [Indanofan]: the pest or weed control at 37.5 g/ha with Monochoria vaginalis (setting [14]) came to 0%; in the data set with Echinochloa crus [6] (setting [15]), 25%.
Consider `CN(C(=O)COc1nc2ccccc2s1)c1ccccc1` [Mefenacet], for which the pest or weed control at 200 g/ha in the data set on Monochoria vaginalis (setting [14]) and in the data set on Echinochloa crus [6] (setting [15]) was 30% each time.
As to `COc1cc(OC)nc(NC(=O)NS(=O)(=O)c2c(C3=NOCC(C)O3)c(Cl)nn2C)n1` (stereo not shown) [Metazosulfuron], in the data set with Monochoria vaginalis (25 g/ha), the “Monochoria vaginalis mortality” value is recorded as 40. The “Echinochloa crus mortality” value in the data set on Echinochloa crus [6] (25 g/ha) was 35.
Consider `COc1cc(OC)nc(NC(=O)NS(=O)(=O)Nc2ccccc2C(=O)N(C)C)n1` [Orthosulfamuron], for which, in the data set on Monochoria vaginalis (17.5 g/ha), the “Monochoria vaginalis mortality” value amounted to 40. Further, the “Echinochloa crus mortality” value with Echinochloa crus [6] (17.5 g/ha) is recorded as 10.
`CC1=C(c2ccccc2)C(=O)N(C(C)(C)c2cc(Cl)cc(Cl)c2)CO1` [Oxaziclomefone]: the pest or weed control at 12.5 g/ha amounted to 0% with Monochoria vaginalis (Pontederia vaginalis, 12.5 g/ha, read-out: Monochoria vaginalis mortality (measured value)) and 30% in the data set on Echinochloa crus [6] (Echinochloa, 12.5 g/ha, read-out: Echinochloa crus mortality (measured value)).
For the compound `CCCc1ccc2nc(Cl)c(S(=O)(=O)NC(=O)Nc3nc(OC)cc(OC)n3)n2n1` [Propyrisulfuron], in the data set on Monochoria vaginalis (18 g/ha), the “Monochoria vaginalis mortality” value was 45. Also, the “Echinochloa crus mortality” value with Echinochloa crus [6] (18 g/ha) turned out to be 45.
Take `COc1cccc(N(C)C(=S)Oc2cccc(C(C)(C)C)c2)n1` [Pyributicarb]: the pest or weed control at 150 g/ha was found to be 20% in the data set with Monochoria vaginalis (Pontederia vaginalis, 150 g/ha, read-out: Monochoria vaginalis mortality (measured value)) and 20% in the data set with Echinochloa crus [6] (Echinochloa, 150 g/ha, read-out: Echinochloa crus mortality (measured value)).
As for `CON=C(C)c1cccc(Oc2nc(OC)cc(OC)n2)c1C(=O)O` [Pyriminobac], the “Monochoria vaginalis mortality” value in the data set on Monochoria vaginalis (11 g/ha) is 0. Also, the “Echinochloa crus mortality” value with Echinochloa crus [6] (11 g/ha) turned out to be 50.
As for `COCc1cccc(C(O)c2nc(OC)cc(OC)n2)c1NS(=O)(=O)C(F)F` (stereo not shown) [Pyrimisulfan], in the data set on Monochoria vaginalis (16.5 g/ha), the “Monochoria vaginalis mortality” value amounted to 50. Also, in the data set on Echinochloa crus [6] (16.5 g/ha), the “Echinochloa crus mortality” value is 40.
Regarding `COc1cc(OC)nc(Sc2cccc3c2C(=O)OC3C)n1` (stereo not shown) [Pyritlalid], the “Monochoria vaginalis mortality” value with Monochoria vaginalis (37.5 g/ha) worked out at 0. Besides, the “Echinochloa crus mortality” value in the data set with Echinochloa crus [6] (37.5 g/ha) came out at 30.
For `NC1=C(Cl)C(=O)c2ccccc2C1=O` [Quinoclamine], the “Monochoria vaginalis mortality” value in the data set with Monochoria vaginalis (450 g/ha) is reported as 0. In addition, the “Echinochloa crus mortality” value in the data set on Echinochloa crus [6] (450 g/ha) is listed as 0.
`Cc1nn(-c2cc(NS(C)(=O)=O)c(Cl)cc2Cl)c(=O)n1C(F)F` [Sulfentrazone]: the pest or weed control at 75 g/ha in the data set on Echinochloa crus [10] stood at 0%; with Digitaria sanguinalis [11], 0%; with Abutilon theophrasti [12], 12%; in the data set with Aeschynomene indica [13] it was 7%. For the same compound, the pest or weed control at 150 g/ha in the data set with Echinochloa crus [10] is 5%; with Digitaria sanguinalis [11], 10%; with Abutilon theophrasti [12] it was 25%; in the data set with Aeschynomene indica [13] it was 25%. Moreover, the pest or weed control at 300 g/ha was determined as 20% in the data set with Echinochloa crus [10], 28% in the data set on Digitaria sanguinalis [11], 56% in the data set with Abutilon theophrasti [12] and 53% in the data set on Aeschynomene indica [13]. Besides, the “Corn mortality, measured value” with corn (75 g/ha) is reported as 0; with corn (150 g/ha), 0; in the data set on corn (300 g/ha), 1.
`COc1nc(OC)nc(C(=O)c2cccc(F)c2N(C)S(=O)(=O)C(F)F)n1` [Triafamone]: the “Monochoria vaginalis mortality” value with Monochoria vaginalis (12.5 g/ha) is given as 10. For the same compound, the “Echinochloa crus mortality” value with Echinochloa crus [6] (12.5 g/ha) was 50.
In the case of `CCSC(=O)N1CCCCCC1` [molinate], the pest or weed control at 500 g/ha was found to be 0% with Monochoria vaginalis (setting [14]) and 50% in the data set with Echinochloa crus [6] (setting [15]).

The values above are taken from patent US10206399B2, “Herbicidal composition comprising uracil compound as active ingredient” (Dongbu Farm Hannong Co., Ltd., priority 2012, dated 2019).
